# Values quoted from earlier work in paper PMC8466373, “Plant-Derived and Dietary Hydroxybenzoic Acids—A Comprehensive Study of Structural, Anti-/Pro-Oxidant, Lipophilic, Antimicrobial, and Cytotoxic Activity in MDA-MB-231 and MCF-7 Cell Lines” (Nutrients, 2021).
# Legend:
# [1] = test system: S. aureus, B. cereus, M. flavus, P. aeruginosa, E. coli, and E. cloacae; conditions: all mentioned strains; cited from earlier work
# [2] = test system: monocytes treated with hydrogen peroxide; conditions: 200 μM; cited from earlier work
# A. niger = conditions: concentration of 30 mg/mL; cited from earlier work
# Chrysosporium species = conditions: concentration of 30 mg/mL; cited from earlier work
# [3] = test system: Botrytis cinerea and Rhizopus stolonifer; conditions: concentration of 5 mM; cited from earlier work
# A2780 cancer cells = conditions: incubation time: two days; cited from earlier work
# MDA-MB-231 cells = test system: MDA-MB-231 cells; set-up: method as in PMID 30211078; conditions: in 24 h; read-out: IC50, growth of MDA-MB-231 cells; cited from earlier work
# MCF-7 = conditions: incubation time: 24 h, cited from earlier work
compound,measurement,setting,value
"O=C(O)c1ccc(O)c(O)c1 [3,4-DHB, 3,4-dihydroxybenzoic acid]",MIC,[1],3000 µg/mL
"O=C(O)c1cccc(O)c1O [2,3-DHB, 2,3-Dihydroxybenzoic acid]",cell survival,[2],50%
same,zone of inhibition,A. niger,22 mm
same,zone of inhibition,Chrysosporium species,25 mm
"O=C(O)c1cc(O)ccc1O [2,5-DHB, 2,5-dihydroxybenzoic acid]",inhibition of spore germination and mycelial growth,[3],completely inhibited
"O=C(O)c1cc(O)c(O)c(O)c1 [3,4,5-THB, 3,4,5-trihydroxybenzoic acid]","IC50, A2780 cancer cells",A2780 cancer cells,45.25 µg/mL
same,IC50,MDA-MB-231 cells,~150 µM
same,"cell proliferation of MCF-7, % of control",MCF-7; 5 μg/mL,42.73 % of control
same,concentration inhibiting 50% of MCF-7 cancer cells,MCF-7,7.5 µg/mL
